According to patent US4182878A, “1-Phenyl-1H-pyrazolo[3,4-d]pyrimidine-4-carbonitrile and a method for its preparation” (The Lion Dentrifice Co., Ltd., priority 1977, dated 1980):

Tests used:
[1] = system: Ehrlich's tumor cells; test: Carcinostatic activity in ddY mice subcutaneously inoculated with Ehrlich's tumor cells; type: in vivo; details: for Weight of tumor tissues in the sample group (S) / Ratio of S/C: 14 days after inoculation; for Weight of tumor tissues in the sample group (S) / Toxicity, ratio of died mice / Ratio of S/C: 1 mg daily intraabdominal injection; for Weight of tumor tissues in the sample group (S) / Toxicity, ratio of died mice: dosage period 10 days (I, IV) or 7 days (XI, VI, X); for Evaluation: based on the ratios of S/C in percentages; for effectiveness in preventing the multiplication of cancer cells: conclusion in words from the table; for Toxicity, ratio of died mice: number of mice died in the group during 14 days after transplantation; for Ratio of S/C: tumor weight sample/control, control 4.44 ± 1.02 g (I, IV), 1.36 ± 0.15 g (XI, VI), 1.52 ± 0.27 g (X)
Procedure: In addition to the foregoing examples of preparation processes, Compounds I, IV, VI, X and XI were evaluated with respect to their carcinostatic activities and acute toxicities by animal tests as follows.
Each of mice (ddY) having a body weight of about 25 g was subcutaneously innoculated with 3×10^6 of Ehrlich's tumor cells, and the thus inoculated mice were divided into 5 "sample" groups and 3 "control" groups, each group consisting of five or four mice. The thus treated mice belonging to the control groups were observed over a period of 14 days. On the other hand, each mouse belonging to the sample groups was given a 1 mg dose of Compounds I, IV, VI, XI or X by injection into the abdominal coelom every day during the period beginning after 24 hours from the innoculation of the tumor cells, and as indicated in the table below.
At the end of the 14-day period following the above-mentioned innoculation of the tumor cells, the tumor tissues of each mouse were taken out and weighed, so that comparison could be made between the weights of the tumor tissues taken from the sample groups and the control groups. Further in the table, "Toxicity" is expressed by the number of mice died in the group during the 14-day period following the transplantation of the cancer cells and "Evaluation" is based on the ratios of S/C in percentages and expressed by "++" when the percentage is 0-25%, "+" when the percentage is 26-50%, and "±" when the percentage is 51-75%.

[2] = Acute toxicity, LD50 by oral administration; details: in vivo, mouse
[3] = Stability of the compound; type: physicochemical

Row | Structure (SMILES) | Weight of tumor tissues in the sample group (S) [1] [g] | Evaluation [1] | effectiveness in preventing the multiplication of cancer cells [1] | Toxicity, ratio of died mice [1] | Ratio of S/C [1] [%] | LD50 [2] [mg/kg] | stability [3]
1 | O=C(O)c1ncnc2c1cnn2-c1ccccc1 [Compound X, 1-phenyl-1H-pyrazolo[3,4-d]pyrimidine-4-carboxylic acid] | 1.14 ± 0.27 | ± (the percentage is 51-75%) | effective in preventing the multiplication of cancer cells | 0/4 | 75.0 | – | –
2 | NC(=S)c1ncnc2c1cnn2-c1ccccc1 [Compound XI, 1-phenyl-1H-pyrazolo[3,4-d]pyrimidine-4-thiocarboxamide] | 0.63 ± 0.08 | + (the percentage is 26-50%) | effective in preventing the multiplication of cancer cells | 0/4 | 46.3 | – | –
3 | NC(=NO)c1ncnc2c1cnn2-c1ccccc1 [Compound VI, 1-phenyl-1H-pyrazolo[3,4-d]pyrimidine-4-carboxamidoxime] | 0.43 ± 0.15 | + (the percentage is 26-50%) | effective in preventing the multiplication of cancer cells | 0/4 | 31.6 | – | –
4 | NC(=O)c1ncnc2c1cnn2-c1ccccc1 [Compound IV, 1-phenyl-1H-pyrazolo[3,4-d]pyrimidine-4-carboxamide] | 3.05 ± 1.40 | ± (the percentage is 51-75%) | effective in preventing the multiplication of cancer cells | 0/5 | 68.7 | – | –
5 | N#Cc1ncnc2c1cnn2-c1ccccc1 [Compound I, 1-phenyl-1H-pyrazolo[3,4-d]pyrimidine-4-carbonitrile] | 0.43 ± 0.40 | ++ (the percentage is 0-25%) | very effective in preventing the multiplication of cancer cells | 1/5 | 9.7 | 100 | stable
